Legend:
K-562 leukemic cells = settings: 16 hr incubation with 1 mM galectin-9, PI, FACS
Procedure: (§1) Cytotoxicities in Jurkat T cells, K-562 leukemic cells, and normal lymphocytes were measured by flow cytometry analysis using PI. That is, PI invades into the damaged target cells when PI is added for the last 15 min of 16 hr incubation with 1 mM galectin-9. Fluorescence generated by PI is measured by FACS. Untreated cells were used as a negative control group, formalin-fixed cells as a 100% dead cell group, and H2O2 (hydrogen peroxide solution)-treated cells as a positive control group, respectively.

normal lymphocytes = settings: Normal Lymphocyte; 16 hr incubation with 1 mM galectin-9; PI, FACS
Procedure: as §1

Jurkat T cells = settings: 16 hr incubation with 1 mM galectin-9, PI, FACS
Procedure: as §1

MOLT-4 cells [1] = test: Effects of Gal-9 on DEX-, anti-Fas Ab- or etoposide-induced apoptosis; assay type: cell-based, human; settings: FIG. 9
Excerpt: The following agents were purchased from suppliers below: DEX (BioVision, CA, US), anti-Fas Ab (clone CH-11, MBL), TNFα (Genzyme, Cambridge, Mass., US), C2 ceramide (SIGMA), and etoposide (Biovision).
Effects of Gal-9 on the apoptosis induced by other stimuli (e.g. DEX, anti-Fas Ab, and etoposide) were examined.

BALL-1 = test: Apoptosis analysis by PI method in BALL-1 cells; assay type: cell-based
Procedure: (§2) MOLT-4 (T cell), Jurkat (T cell), BALL-1 (B cell), THP-1 (acute monocytic leukemia derived cell), and HL60 (acute promyelotic leukemia derived cell) cells were obtained from American Type Culture Collection (ATCC). All the cell lines were maintained in an RPMI-1640 medium (Sigma, St. Louis, US) supplemented with 10% FCS in 5% Co2 at 37° C. Lactose (30 mM) was added to the culture medium to inhibit Gal-9 activity. The same concentration of sucrose was used as a control.
(§3) Cells that underwent apoptosis induction were centrifuged at 4° C. for 5 min at 1,000 rpm, and the cell pellet was resuspended in PBS (300 μL), and adjusted to a final concentration of 70% by gradually adding 100% cold ethanol (700 μL) to the suspended cells with vortexing. […] Stained cells were analyzed by flow cytometry (Sandstrom, K. et al., J Immunol Methods, 240: 55 (2000) and Zhang L. et al., Cancer Lett, 142: 129 (1999)) after removing aggregated cells through a nylon mesh and increasing the cell volume with PBS. […]
(§4) Apoptotic activity was measured by the PI method. […] Subsequently, incubation with PI leads to a reduction in the fluorescence intensity of apoptotic cells. Apoptosis was examined by the percentage of the cells wherein their fluorescence intensity was reduced. […]

CD8+ T cells = test: Apoptosis induction in peripheral blood CD8+ T cells, resting or anti-CD3 Ab-activated; assay type: cell-based, human; settings: galectin (+), 1 μM rGal-9
Procedure: To prepare a well plate coated with anti-CD3 Ab, 24 well palates were incubated with TBS solution (pH 8.0) containing 3 μg/mL anti-CD3 Ab (Inmunotech, Marseille, France) per well at 4° C. overnight, and each well was washed with PBS after removing anti-CD3 Ab solution.
Mononuclear leukocyte fractions were isolated from heparinized blood using HISTOPAQUE (Registered trademark, SIGMA). CD4-Positive Isolation Kit (DYNAL, Oslo, Norway) was used for isolation of CD4+ T cells and Dynabeads M-450 CD8 (Registered trademark, DYNAL, Oslo, Norway) for isolation of CD8+ T cells, respectively, according to the manufacturer's instructions.
To activate T cells, CD4+ or CD8+ cells at 1×10^6 cells/mL in an RPMI-1640 medium containing 10% FCS were incubated on the plate coated with anti-CD3 Ab for 20 to 24 hr at 37° C. in a 5% CO2 incubator, and incubated with rGal-9 [(His)6-Gal-9(S)] at 37° C. in a 5% CO2 incubator. Then apoptosis assay was conducted as described in (c). That is, cells were incubated with 50 μg/mL PI (SIGMA) at 37° C. for 10 min in the dark. Stained cells were analyzed by flow cytometry (Sandstrom, K. et al., J Immunol Methods, 240: 55 (2000) and Zhang L. et al., Cancer Lett, 142: 129 (1999)).
Apoptosis assay was also conducted for non-activated (resting) T cells as described above after incubating them with rGal-9 [(His)6-Gal-9(S)] at 37° C. in a 5% Co2 incubator.
For comparison, galectin-1 and -3 treated cells were analyzed.
Next, apoptosis induction by Gal-9 in human peripheral blood T cells was examined. T cells were separated into CD4+ and CD8+ T cells followed by incubation in the presence or absence of anti-CD3 Ab. Resting T cells and anti-CD3 Ab-activated T cells were incubated with 1 μM rGal-9.

MOLT-4 cells [2] = test: Apoptosis analysis with Annexin V-PI in MOLT-4 cells; assay type: cell-based, human; settings: 1 μM Gal-9; FIG. 1B; control 13.2%
Procedure: MEBCYTO (registered trademark) Apoptosis kit (MBL, Nagoya, Japan) was used for apoptosis analysis with Annexin V-PI. Experiments were carried out according to the manufacturer's instruction as follows. Briefly, cells that underwent apoptosis induction (2×10^5 cells/sample) were washed with PBS, and resuspended in the binding buffer. After adding Annexin V-FITC and 5 μL of PI (final concentration 5 μg/mL) in the kit to the cell suspension, cells were incubated for 15 min at room temperature in the dark. Analysis was conducted using flow cytometry (EPICS XL-MCL, CouHer, Miami, Fla., US).

THP-1 = test: Apoptosis analysis by PI method in THP-1 cells; assay type: cell-based
Procedure: as §2, §3, §4

“Galectin-9: Recombinant human galectin-9 expressed in E. coli and purified on lactose-agarose” was tested, and the “cytotoxicity, 16 hours” value (K-562 leukemic cells) was 23.4, the “cytotoxicity, 16 hours” value (normal lymphocytes) was 2.47 and the “cytotoxicity, 16 hours” value (Jurkat T cells) was 46.2. The “effect of rGal-9 on anti-Fas Ab-induced apoptosis” value (MOLT-4 cells [1]) was “additional effects”, the “effect of rGal-9 on etoposide-induced apoptosis” value (MOLT-4 cells [1]) was “additional effects” and the “percentage (%) of apoptotic cells, rGal-9 with DEX” value (MOLT-4 cells [1]) was “scarcely little or no difference”. The “apoptosis induction, Gal9 (+)” value (BALL-1; BALL-1, incubation with galectin-9 at least 48 hr or more) was 26.0, the apoptosis induction (BALL-1; rGal-9 1 μM, 24 hr, FIG. 3) was “induced” and the “apoptosis induction, CD8” value (CD8+ T cells; CD3 (+) cells activated on anti-CD3 Ab-coated plates) was 25.7. The “apoptosis induction, CD8” value (CD8+ T cells; CD3 (−) untreated resting cells) was 17.8, the “cells that underwent apoptosis, detectable by Annexin V staining” value (MOLT-4 cells [2]) was 69.1% and the “apoptosis induction, Gal9 (+)” value (THP-1; THP-1, incubation with galectin-9 at least 48 hr or more) was 61.2. The apoptosis induction (THP-1; rGal-9 1 μM, 24 hr, FIG. 3) was “induced”.

— US20060134119A1, “Drugs containing galectin 9” (priority 2003, published 2006)
